Measured values reported in paper PMC3399817 (PLoS ONE, 2012).

How the values were obtained:
Assay in all cases: KINOMEscan
Format in all cases: binding
p38-alpha = target: T1, p38-alpha (Homo sapiens, UniProt Q16539); conditions: 1 uM
T1 construct: purchased Ambit KINOMEscan (DiscoverX)
Outline: (§1)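 Compounds were each tested at a single concentration of 1 μM in a binding-based kinase panel.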

RIPK2 = target: T2, RIPK2 (Homo sapiens, UniProt O43353); conditions: RIPK2, 1 uM
T2 construct: purchased Ambit KINOMEscan (DiscoverX)
Outline: as §1

DYRK2 = target: T3, DYRK2 (Homo sapiens, UniProt Q92630); conditions: DYRK2, 1 uM
T3 construct: purchased Ambit KINOMEscan (DiscoverX)
Outline: as §1

MYLK2 = target: T4, MYLK2 (Homo sapiens, UniProt Q9H1R3); conditions: MYLK2, 1 uM
T4 construct: purchased Ambit KINOMEscan (DiscoverX)
Outline: as §1

MAK = target: T5, MAK (Homo sapiens, UniProt P20794); conditions: 1 uM
T5 construct: purchased Ambit KINOMEscan (DiscoverX)
Outline: as §1

MST2 = target: T6, MST2 (Homo sapiens, UniProt Q13188); conditions: MST2, 1 uM
T6 construct: purchased Ambit KINOMEscan (DiscoverX)
Outline: as §1

PRKD1 = target: T7, PRKD1 (Homo sapiens, UniProt Q15139); conditions: PRKD1, 1 uM
T7 construct: purchased Ambit KINOMEscan (DiscoverX)
Outline: as §1

MAP4K3 = target: T8, MAP4K3 (Homo sapiens, UniProt Q8IVH8); conditions: MAP4K3, 1 uM
T8 construct: purchased Ambit KINOMEscan (DiscoverX)
Outline: as §1

CSNK2A2 = target: T9, CSNK2A2 (Homo sapiens, UniProt P19784); conditions: CSNK2A2, 1 uM
T9 construct: purchased Ambit KINOMEscan (DiscoverX)
Outline: as §1

PRKCQ = target: T10, PRKCQ (Homo sapiens, UniProt Q04759); conditions: 1 uM
T10 construct: purchased Ambit KINOMEscan (DiscoverX)
Outline: as §1

CAMK1D = target: T11, CAMK1D (Homo sapiens, UniProt Q8IU85); conditions: 1 uM
T11 construct: purchased Ambit KINOMEscan (DiscoverX)
Outline: as §1

[1] = target: T12, RPS6KA5(Kin.Dom.1-N-terminal) (Homo sapiens, UniProt O75582); conditions: 1 uM
T12 construct: RPS6KA5(Kin.Dom.1-N-terminal); purchased Ambit KINOMEscan (DiscoverX)
Outline: as §1

NEK2 = target: T13, NEK2 (Homo sapiens, UniProt P51955); conditions: NEK2, 1 uM
T13 construct: purchased Ambit KINOMEscan (DiscoverX)
Outline: as §1

YSK1 = target: T14, YSK1 (Homo sapiens, UniProt O00506); conditions: YSK1, 1 uM
T14 construct: purchased Ambit KINOMEscan (DiscoverX)
Outline: as §1

YES = target: T15, YES (Homo sapiens, UniProt P07947); conditions: 1 uM
T15 construct: purchased Ambit KINOMEscan (DiscoverX)
Outline: as §1

PIK3CA(E545A) = target: T16, PIK3CA(E545A) (Homo sapiens, UniProt P42336, E545A); conditions: 1 uM
T16 construct: purchased Ambit KINOMEscan (DiscoverX)
Outline: as §1

BIKE = target: T17, BIKE (Homo sapiens, UniProt Q9NSY1); conditions: 1 uM
T17 construct: purchased Ambit KINOMEscan (DiscoverX)
Outline: as §1

HUNK = target: T18, HUNK (Homo sapiens, UniProt P57058); conditions: 1 uM
T18 construct: purchased Ambit KINOMEscan (DiscoverX)
Outline: as §1

PIK3CD = target: T19, PIK3CD (Homo sapiens, UniProt O00329); conditions: 1 uM
T19 construct: purchased Ambit KINOMEscan (DiscoverX)
Outline: as §1

PLK2 = target: T20, PLK2 (Homo sapiens, UniProt Q9NYY3); conditions: PLK2, 1 uM
T20 construct: purchased Ambit KINOMEscan (DiscoverX)
Outline: as §1

DAPK2 = target: T21, DAPK2 (Homo sapiens, UniProt Q9UIK4); conditions: DAPK2, 1 uM
T21 construct: purchased Ambit KINOMEscan (DiscoverX)
Outline: as §1

AMPK-alpha2 = target: T22, AMPK-alpha2 (Homo sapiens, UniProt P54646); conditions: AMPK-alpha2, 1 uM
T22 construct: purchased Ambit KINOMEscan (DiscoverX)
Outline: as §1

SNARK = target: T23, SNARK (Homo sapiens, UniProt Q9H093); conditions: 1 uM
T23 construct: purchased Ambit KINOMEscan (DiscoverX)
Outline: as §1

JNK3 = target: T24, JNK3 (Homo sapiens, UniProt P53779); conditions: JNK3, 1 uM
T24 construct: purchased Ambit KINOMEscan (DiscoverX)
Outline: as §1

[2] = target: T25, ABL1(M351T)-phosphorylated (Homo sapiens, UniProt P00519, M351T); conditions: 1 uM
T25 construct: purchased Ambit KINOMEscan (DiscoverX)
Outline: as §1

NLK = target: T26, NLK (Homo sapiens, UniProt Q9UBE8); conditions: 1 uM
T26 construct: purchased Ambit KINOMEscan (DiscoverX)
Outline: as §1

CDKL5 = target: T27, CDKL5 (Homo sapiens, UniProt O76039); conditions: CDKL5, 1 uM
T27 construct: purchased Ambit KINOMEscan (DiscoverX)
Outline: as §1

FGFR4 = target: T28, FGFR4 (Homo sapiens, UniProt P22455); conditions: FGFR4, 1 uM
T28 construct: purchased Ambit KINOMEscan (DiscoverX)
Outline: as §1

GRK7 = target: T29, GRK7 (Homo sapiens, UniProt Q8WTQ7); conditions: GRK7, 1 uM
T29 construct: purchased Ambit KINOMEscan (DiscoverX)
Outline: as §1

TGFBR1 = target: T30, TGFBR1 (Homo sapiens, UniProt P36897); conditions: TGFBR1, 1 uM
T30 construct: purchased Ambit KINOMEscan (DiscoverX)
Outline: as §1

MARK1 = target: T31, MARK1 (Homo sapiens, UniProt Q9P0L2); conditions: MARK1, 1 uM
T31 construct: purchased Ambit KINOMEscan (DiscoverX)
Outline: as §1

MLK1 = target: T32, MLK1 (Homo sapiens, UniProt P80192); conditions: MLK1, 1 uM
T32 construct: purchased Ambit KINOMEscan (DiscoverX)
Outline: as §1

PIK3CA(M1043I) = target: T33, PIK3CA(M1043I) (Homo sapiens, UniProt P42336, M1043I); conditions: 1 uM
T33 construct: purchased Ambit KINOMEscan (DiscoverX)
Outline: as §1

MST3 = target: T34, MST3 (Homo sapiens, UniProt Q9Y6E0); conditions: MST3, 1 uM
T34 construct: purchased Ambit KINOMEscan (DiscoverX)
Outline: as §1

DYRK1B = target: T35, DYRK1B (Homo sapiens, UniProt Q9Y463); conditions: 1 uM
T35 construct: purchased Ambit KINOMEscan (DiscoverX)
Outline: as §1

HIPK1 = target: T36, HIPK1 (Homo sapiens, UniProt Q86Z02); conditions: for % binding compared to no inhibitor control: HIPK1, 1 uM
T36 construct: purchased Ambit KINOMEscan (DiscoverX)
Outline: as §1

CSF1R = target: T37, CSF1R (Homo sapiens, UniProt P07333); conditions: 1 uM
T37 construct: purchased Ambit KINOMEscan (DiscoverX)
Outline: as §1

RIOK2 = target: T38, RIOK2 (Homo sapiens, UniProt Q9BVS4); conditions: RIOK2, 1 uM
T38 construct: purchased Ambit KINOMEscan (DiscoverX)
Outline: as §1

EGFR(L858R) = target: T39, EGFR(L858R) (Homo sapiens, UniProt P00533, L858R); conditions: 1 uM
T39 construct: purchased Ambit KINOMEscan (DiscoverX)
Outline: as §1

T36 sequence (Q86Z02 whole entry): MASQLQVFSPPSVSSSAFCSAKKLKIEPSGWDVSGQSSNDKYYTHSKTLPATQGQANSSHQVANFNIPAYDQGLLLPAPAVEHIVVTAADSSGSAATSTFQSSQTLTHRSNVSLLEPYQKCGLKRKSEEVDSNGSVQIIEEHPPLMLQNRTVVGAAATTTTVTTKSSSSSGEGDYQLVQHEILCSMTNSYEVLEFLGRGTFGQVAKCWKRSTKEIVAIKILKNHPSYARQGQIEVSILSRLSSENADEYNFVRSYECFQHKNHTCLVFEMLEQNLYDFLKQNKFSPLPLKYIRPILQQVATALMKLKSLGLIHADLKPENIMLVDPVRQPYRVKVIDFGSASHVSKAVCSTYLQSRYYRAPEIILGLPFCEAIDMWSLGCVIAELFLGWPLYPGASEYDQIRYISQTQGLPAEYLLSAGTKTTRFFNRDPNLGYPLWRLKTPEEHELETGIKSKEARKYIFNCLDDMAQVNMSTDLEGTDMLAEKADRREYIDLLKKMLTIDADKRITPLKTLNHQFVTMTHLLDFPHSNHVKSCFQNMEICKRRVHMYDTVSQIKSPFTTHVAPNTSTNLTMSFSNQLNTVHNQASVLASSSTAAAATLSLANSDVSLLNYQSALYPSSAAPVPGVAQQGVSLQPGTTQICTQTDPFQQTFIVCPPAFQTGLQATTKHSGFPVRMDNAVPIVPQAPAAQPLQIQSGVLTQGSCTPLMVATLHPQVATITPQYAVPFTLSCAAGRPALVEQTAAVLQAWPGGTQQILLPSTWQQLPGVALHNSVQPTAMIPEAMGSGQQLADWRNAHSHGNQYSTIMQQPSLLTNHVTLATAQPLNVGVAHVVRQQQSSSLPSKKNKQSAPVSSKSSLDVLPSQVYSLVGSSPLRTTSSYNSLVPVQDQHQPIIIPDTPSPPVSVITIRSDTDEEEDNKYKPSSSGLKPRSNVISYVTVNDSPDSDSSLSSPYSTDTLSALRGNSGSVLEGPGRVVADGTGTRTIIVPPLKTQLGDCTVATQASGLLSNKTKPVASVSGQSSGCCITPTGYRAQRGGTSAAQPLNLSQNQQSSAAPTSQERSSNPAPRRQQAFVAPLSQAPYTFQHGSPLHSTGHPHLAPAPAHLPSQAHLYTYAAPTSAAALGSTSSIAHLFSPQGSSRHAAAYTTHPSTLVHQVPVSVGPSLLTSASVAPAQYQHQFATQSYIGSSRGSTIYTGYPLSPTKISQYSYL
T12 sequence (O75582 1-387 limits assumed): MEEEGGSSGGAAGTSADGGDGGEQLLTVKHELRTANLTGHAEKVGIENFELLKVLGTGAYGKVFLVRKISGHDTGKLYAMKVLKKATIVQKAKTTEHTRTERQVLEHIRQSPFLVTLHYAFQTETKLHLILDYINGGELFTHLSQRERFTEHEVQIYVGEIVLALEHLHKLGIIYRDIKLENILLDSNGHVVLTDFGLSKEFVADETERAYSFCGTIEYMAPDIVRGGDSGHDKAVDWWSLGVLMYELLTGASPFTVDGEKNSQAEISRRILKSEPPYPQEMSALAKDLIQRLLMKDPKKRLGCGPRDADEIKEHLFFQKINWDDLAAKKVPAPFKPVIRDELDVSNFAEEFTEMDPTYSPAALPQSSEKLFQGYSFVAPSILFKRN
T10 sequence (Q04759 whole entry): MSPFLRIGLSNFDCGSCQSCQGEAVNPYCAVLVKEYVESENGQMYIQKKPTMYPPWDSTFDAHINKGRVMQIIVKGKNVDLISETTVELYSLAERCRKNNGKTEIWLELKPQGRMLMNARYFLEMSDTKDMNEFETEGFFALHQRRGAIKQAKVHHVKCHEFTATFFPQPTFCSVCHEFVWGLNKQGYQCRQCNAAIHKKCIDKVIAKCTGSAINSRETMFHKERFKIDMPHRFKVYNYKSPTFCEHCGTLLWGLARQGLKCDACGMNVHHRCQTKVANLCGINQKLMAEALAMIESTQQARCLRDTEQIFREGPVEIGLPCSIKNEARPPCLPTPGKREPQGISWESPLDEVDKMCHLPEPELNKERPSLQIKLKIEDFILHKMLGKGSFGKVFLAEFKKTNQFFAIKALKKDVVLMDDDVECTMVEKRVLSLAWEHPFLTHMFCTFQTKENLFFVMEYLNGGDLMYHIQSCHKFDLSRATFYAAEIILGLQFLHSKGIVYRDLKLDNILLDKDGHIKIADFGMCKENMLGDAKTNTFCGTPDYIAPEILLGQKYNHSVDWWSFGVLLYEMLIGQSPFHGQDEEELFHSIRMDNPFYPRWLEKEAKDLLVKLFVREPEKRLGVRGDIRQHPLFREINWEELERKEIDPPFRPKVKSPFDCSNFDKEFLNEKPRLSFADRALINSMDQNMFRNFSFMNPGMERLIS
T38 sequence (Q9BVS4 whole entry): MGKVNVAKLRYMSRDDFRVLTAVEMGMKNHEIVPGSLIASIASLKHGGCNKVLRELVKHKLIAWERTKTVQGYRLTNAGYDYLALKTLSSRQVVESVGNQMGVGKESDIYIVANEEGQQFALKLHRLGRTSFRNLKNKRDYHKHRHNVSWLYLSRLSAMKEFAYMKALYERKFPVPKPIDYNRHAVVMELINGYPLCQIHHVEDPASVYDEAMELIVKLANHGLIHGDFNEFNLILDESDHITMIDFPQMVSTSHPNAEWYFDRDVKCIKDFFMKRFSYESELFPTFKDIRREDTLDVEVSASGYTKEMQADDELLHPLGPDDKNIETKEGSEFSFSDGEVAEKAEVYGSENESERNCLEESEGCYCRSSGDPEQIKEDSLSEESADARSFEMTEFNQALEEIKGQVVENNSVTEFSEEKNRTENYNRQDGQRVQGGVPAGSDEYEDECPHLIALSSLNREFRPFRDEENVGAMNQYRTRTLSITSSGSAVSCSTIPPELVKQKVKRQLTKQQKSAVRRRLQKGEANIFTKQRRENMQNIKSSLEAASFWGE
T16 sequence (P42336 whole entry E545A): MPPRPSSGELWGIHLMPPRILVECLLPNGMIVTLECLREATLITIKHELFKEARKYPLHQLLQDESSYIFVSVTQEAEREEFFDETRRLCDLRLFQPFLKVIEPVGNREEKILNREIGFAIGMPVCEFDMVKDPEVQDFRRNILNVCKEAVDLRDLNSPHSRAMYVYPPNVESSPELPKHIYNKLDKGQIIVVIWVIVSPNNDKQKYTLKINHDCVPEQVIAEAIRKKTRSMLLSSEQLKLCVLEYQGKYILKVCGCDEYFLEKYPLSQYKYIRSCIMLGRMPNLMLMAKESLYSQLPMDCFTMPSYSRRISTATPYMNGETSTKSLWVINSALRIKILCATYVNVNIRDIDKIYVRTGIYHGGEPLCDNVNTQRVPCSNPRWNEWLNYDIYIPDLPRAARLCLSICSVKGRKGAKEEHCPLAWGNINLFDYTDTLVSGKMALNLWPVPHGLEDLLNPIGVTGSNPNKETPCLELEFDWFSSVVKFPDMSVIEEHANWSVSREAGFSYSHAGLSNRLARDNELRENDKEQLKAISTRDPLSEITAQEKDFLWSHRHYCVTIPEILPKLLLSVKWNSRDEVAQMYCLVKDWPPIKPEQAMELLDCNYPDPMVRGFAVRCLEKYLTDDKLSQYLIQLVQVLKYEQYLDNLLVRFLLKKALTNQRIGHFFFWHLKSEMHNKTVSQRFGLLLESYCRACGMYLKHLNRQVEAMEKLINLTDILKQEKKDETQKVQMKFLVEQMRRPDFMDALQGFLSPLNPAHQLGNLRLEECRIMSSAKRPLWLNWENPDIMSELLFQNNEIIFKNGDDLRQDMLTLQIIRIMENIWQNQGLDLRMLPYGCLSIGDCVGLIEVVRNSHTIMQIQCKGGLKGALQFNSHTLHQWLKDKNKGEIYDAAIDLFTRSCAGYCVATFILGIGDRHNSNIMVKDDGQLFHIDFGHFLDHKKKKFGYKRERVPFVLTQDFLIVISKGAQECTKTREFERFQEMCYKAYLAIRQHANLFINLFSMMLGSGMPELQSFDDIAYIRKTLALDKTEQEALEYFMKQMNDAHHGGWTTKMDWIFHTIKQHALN
T5 sequence (P20794 whole entry): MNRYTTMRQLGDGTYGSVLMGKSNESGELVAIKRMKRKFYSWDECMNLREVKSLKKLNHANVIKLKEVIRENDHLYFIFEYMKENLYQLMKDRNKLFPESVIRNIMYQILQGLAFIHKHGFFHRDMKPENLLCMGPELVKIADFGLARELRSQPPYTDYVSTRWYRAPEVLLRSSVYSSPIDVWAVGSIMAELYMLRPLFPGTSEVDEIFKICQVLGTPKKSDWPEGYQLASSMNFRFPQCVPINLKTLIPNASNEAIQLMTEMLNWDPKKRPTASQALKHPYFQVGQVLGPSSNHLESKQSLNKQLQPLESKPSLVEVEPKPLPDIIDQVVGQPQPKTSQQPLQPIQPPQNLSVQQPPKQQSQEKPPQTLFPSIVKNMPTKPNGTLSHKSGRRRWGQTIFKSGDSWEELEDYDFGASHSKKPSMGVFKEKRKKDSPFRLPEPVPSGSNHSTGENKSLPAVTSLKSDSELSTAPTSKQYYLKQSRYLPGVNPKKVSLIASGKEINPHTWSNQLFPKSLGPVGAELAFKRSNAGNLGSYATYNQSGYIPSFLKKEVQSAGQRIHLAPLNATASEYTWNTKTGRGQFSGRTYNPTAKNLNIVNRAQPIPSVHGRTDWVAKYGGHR
T13 sequence (P51955 whole entry): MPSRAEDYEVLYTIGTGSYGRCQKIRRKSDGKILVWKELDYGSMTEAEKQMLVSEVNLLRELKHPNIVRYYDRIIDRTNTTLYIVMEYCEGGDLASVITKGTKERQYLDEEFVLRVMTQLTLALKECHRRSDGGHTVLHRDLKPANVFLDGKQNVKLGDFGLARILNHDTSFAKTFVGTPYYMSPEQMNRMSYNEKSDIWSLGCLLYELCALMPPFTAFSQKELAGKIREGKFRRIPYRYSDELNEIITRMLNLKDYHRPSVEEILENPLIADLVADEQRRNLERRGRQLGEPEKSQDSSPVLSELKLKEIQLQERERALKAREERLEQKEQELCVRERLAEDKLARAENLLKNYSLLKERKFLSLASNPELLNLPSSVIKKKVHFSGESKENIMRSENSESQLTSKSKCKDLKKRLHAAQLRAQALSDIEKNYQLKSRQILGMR
T33 sequence (P42336 whole entry M1043I): as the sequence (P42336 whole entry E545A) above, with A545E, M1043I counted along it

Row | Compound | % binding compared to no inhibitor control (p38-alpha) | % binding compared to no inhibitor control (RIPK2) | % binding compared to no inhibitor control (DYRK2) | % binding compared to no inhibitor control (MYLK2) | % binding compared to no inhibitor control (MAK) | % binding compared to no inhibitor control (MST2) | % binding compared to no inhibitor control (PRKD1) | % binding compared to no inhibitor control (MAP4K3) | % binding compared to no inhibitor control (CSNK2A2) | % binding compared to no inhibitor control (PRKCQ) | % binding compared to no inhibitor control (CAMK1D) | % binding compared to no inhibitor control [1] | % binding compared to no inhibitor control (NEK2) | % binding compared to no inhibitor control (YSK1) | % binding compared to no inhibitor control (YES) | % binding compared to no inhibitor control (PIK3CA(E545A)) | % binding compared to no inhibitor control (BIKE) | % binding compared to no inhibitor control (HUNK) | % binding compared to no inhibitor control (PIK3CD) | % binding compared to no inhibitor control (PLK2) | also measured
1 | COc1ccccc1Nc1nc(-c2ccc(OC)c(OC)c2)cc2nccn12 [BAY derivative 6] | 95% | 100% | 56% | 89% | 100% | 82% | 100% | 100% | 100% | 100% | 100% | 89% | 88% | 82% | 57% | 100% | 53% | 75% | 100% | 100% | % binding compared to no inhibitor control (DAPK2): 100%; % binding compared to no inhibitor control (AMPK-alpha2): 100%; % binding compared to no inhibitor control (SNARK): 89%; % binding compared to no inhibitor control (JNK3): 100%; % binding compared to no inhibitor control [2]: 92%; % binding compared to no inhibitor control (NLK): 82%; % binding compared to no inhibitor control (CDKL5): 100%; % binding compared to no inhibitor control (FGFR4): 100%; % binding compared to no inhibitor control (GRK7): 100%; % binding compared to no inhibitor control (TGFBR1): 99%; % binding compared to no inhibitor control (MARK1): 100%; % binding compared to no inhibitor control (MLK1): 100%; % binding compared to no inhibitor control (PIK3CA(M1043I)): 100%; % binding compared to no inhibitor control (MST3): 100%; % binding compared to no inhibitor control (DYRK1B): 57%; % binding compared to no inhibitor control (HIPK1): 85%; % binding compared to no inhibitor control (CSF1R): 42%; % binding compared to no inhibitor control (RIOK2): 80%; % binding compared to no inhibitor control (EGFR(L858R)): 88%
2 | COc1ccc(-c2cc3nccn3c(Nc3ncccc3C(N)=O)n2)cc1OC.Cl.Cl [BAY61-3606, 2-[7-(3,4-dimethoxyphenyl)-imidazo [1,2-c]pyrimidin-5-ylamino] nicotinamide dihydrochloride, reference compound] | 100% | 70% | 24% | 86% | 68% | 97% | 39% | 97% | 54% | 88% | 72% | 90% | 77% | 53% | 96% | 90% | 22% | 67% | 81% | 50% | % binding compared to no inhibitor control (DAPK2): 66%; % binding compared to no inhibitor control (AMPK-alpha2): 83%; % binding compared to no inhibitor control (SNARK): 32%; % binding compared to no inhibitor control (JNK3): 41%; % binding compared to no inhibitor control [2]: 81%; % binding compared to no inhibitor control (NLK): 88%; % binding compared to no inhibitor control (CDKL5): 60%; % binding compared to no inhibitor control (FGFR4): 100%; % binding compared to no inhibitor control (GRK7): 59%; % binding compared to no inhibitor control (TGFBR1): 99%; % binding compared to no inhibitor control (MARK1): 100%; % binding compared to no inhibitor control (MLK1): 100%; % binding compared to no inhibitor control (PIK3CA(M1043I)): 80%; % binding compared to no inhibitor control (MST3): 56%; % binding compared to no inhibitor control (DYRK1B): 81%; % binding compared to no inhibitor control (HIPK1): 8.8%; % inhibition ATP binding (HIPK1; HIPK1, KINOMEscan, 1 μM): 91.2%; % binding compared to no inhibitor control (CSF1R): 51%; % binding compared to no inhibitor control (RIOK2): 4%; % binding compared to no inhibitor control (EGFR(L858R)): 100%
